Results from ChEMBL document CHEMBL1201862, “PubChem BioAssay data set” (2004).
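Where inhibition never reached the appropriate level, the endpoint shown equals the highest concentration tested. Otherwise, values were interpolated linearly from a five-concentration, 48-hour dose response in 96-well plates. GI50 = concentration required for 50% inhibition of growth.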 Activity calls are given as the source filed them. Rule as the data show it: active = GI50 up to about 1.1 µM and inactive = higher.

Assays:
Assay in all cases: NCI tumour cell line growth inhibition, 48 h
[1] = tested on: 786-0
[2] = tested on: A498
[3] = tested on: A549
[4] = tested on: ACHN
[5] = tested on: BT-549
[6] = tested on: CAKI-1
[7] = tested on: CCRF-CEM
[8] = tested on: COLO 205
[9] = tested on: DU-145
[10] = tested on: EKVX
[11] = tested on: HCC 2998
[12] = tested on: HCT-116
[13] = tested on: HCT-15
[14] = tested on: HL-60
[15] = tested on: HOP-62
[16] = tested on: HOP-92
[17] = tested on: HT-29
[18] = tested on: Hs-578T
[19] = tested on: K562
[20] = tested on: KM12
[21] = tested on: LOX IMVI
[22] = tested on: M14
[23] = tested on: MCF7
[24] = tested on: MDA-MB-231
[25] = tested on: MDA-MB-435
[26] = tested on: MDA-N
[27] = tested on: MOLT-4
[28] = tested on: Malme-3M
[29] = tested on: NCI-H226
[30] = tested on: NCI-H23
[31] = tested on: NCI-H460
[32] = tested on: NCI-H522
[33] = tested on: NCI/ADR-RES
[34] = tested on: OVCAR-3
[35] = tested on: OVCAR-4
[36] = tested on: OVCAR-5
[37] = tested on: OVCAR-8
[38] = tested on: PC-3
[39] = tested on: RPMI-8226
[40] = tested on: RXF 393
[41] = tested on: SF-268
[42] = tested on: SF-295
[43] = tested on: SF-539
[44] = tested on: SK-MEL-28
[45] = tested on: SK-MEL-2
[46] = tested on: SK-MEL-5
[47] = tested on: SK-OV-3
[48] = tested on: SNB-19
[49] = tested on: SNB-75
[50] = tested on: SR
[51] = tested on: SW-620
[52] = tested on: T47D
[53] = tested on: TK-10
[54] = tested on: U-251
[55] = tested on: UACC-257
[56] = tested on: UACC-62
[57] = tested on: UO-31
[58] = tested on: IGROV-1
[59] = tested on: SN12C

Question: With `N#CCCN(CCCN(C(=O)Nc1ccc(NC(=O)N(CCCN(CCC#N)C(N)=O)c2ccccc2)cc1)c1ccccc1)C(N)=O` as the molecule, how does the GI50 [1] read?
Answer: > 100 µM (inactive)

Question: What about the GI50 [2] of the same molecule?
Answer: > 100 µM (inactive)

Question: And the GI50 [3]?
Answer: > 100 µM (inactive)

Question: And the GI50 [4]?
Answer: > 100 µM (inactive)

Question: What about the GI50 [5] of the same molecule?
Answer: > 100 µM (inactive)

Question: And the GI50 [6]?
Answer: > 100 µM (inactive)

Question: And the GI50 [7]?
Answer: 87.5 µM (inactive)

Question: What about the GI50 [8] of the same molecule?
Answer: > 100 µM (inactive)

Question: What about the GI50 [9] of the same molecule?
Answer: > 100 µM (inactive)

Question: What about the GI50 [10] of the same molecule?
Answer: > 100 µM (inactive)

Question: And the GI50 [11]?
Answer: > 100 µM (inactive)

Question: What about the GI50 [12] of the same molecule?
Answer: > 100 µM (inactive)

Question: What about the GI50 [13] of the same molecule?
Answer: > 100 µM

Question: What about the GI50 [14] of the same molecule?
Answer: > 100 µM (inactive)

Question: And the GI50 [15]?
Answer: > 100 µM (inactive)

Question: And the GI50 [16]?
Answer: > 100 µM (inactive)

Question: And the GI50 [17]?
Answer: > 100 µM (inactive)

Question: And the GI50 [18]?
Answer: > 100 µM (inactive)

Question: And the GI50 [19]?
Answer: > 100 µM (inactive)

Question: What about the GI50 [20] of the same molecule?
Answer: > 100 µM (inactive)

Question: What about the GI50 [21] of the same molecule?
Answer: > 100 µM (inactive)

Question: And the GI50 [22]?
Answer: > 100 µM (inactive)

Question: And the GI50 [23]?
Answer: 4.72 µM (inactive)

Question: What about the GI50 [24] of the same molecule?
Answer: > 100 µM (inactive)

Question: And the GI50 [25]?
Answer: > 100 µM (inactive)

Question: And the GI50 [26]?
Answer: > 100 µM (inactive)

Question: And the GI50 [27]?
Answer: > 100 µM (inactive)

Question: And the GI50 [28]?
Answer: > 100 µM (inactive)

Question: And the GI50 [29]?
Answer: > 100 µM (inactive)

Question: And the GI50 [30]?
Answer: > 100 µM (inactive)

Question: And the GI50 [31]?
Answer: > 100 µM (inactive)

Question: What about the GI50 [32] of the same molecule?
Answer: > 100 µM (inactive)

Question: And the GI50 [33]?
Answer: > 100 µM (inactive)

Question: And the GI50 [34]?
Answer: > 100 µM (inactive)

Question: And the GI50 [35]?
Answer: > 100 µM (inactive)

Question: What about the GI50 [36] of the same molecule?
Answer: > 100 µM (inactive)

Question: And the GI50 [37]?
Answer: > 100 µM (inactive)

Question: And the GI50 [38]?
Answer: > 100 µM (inactive)

Question: And the GI50 [39]?
Answer: > 100 µM (inactive)

Question: And the GI50 [40]?
Answer: > 100 µM (inactive)

Question: And the GI50 [41]?
Answer: > 100 µM (inactive)

Question: What about the GI50 [42] of the same molecule?
Answer: > 100 µM (inactive)

Question: What about the GI50 [43] of the same molecule?
Answer: > 100 µM (inactive)

Question: And the GI50 [44]?
Answer: > 100 µM (inactive)

Question: And the GI50 [45]?
Answer: > 100 µM (inactive)

Question: And the GI50 [46]?
Answer: > 100 µM (inactive)

Question: And the GI50 [47]?
Answer: > 100 µM (inactive)

Question: What about the GI50 [48] of the same molecule?
Answer: > 100 µM (inactive)

Question: And the GI50 [49]?
Answer: 67.5 µM (inactive)

Question: And the GI50 [50]?
Answer: > 100 µM (inactive)

Question: And the GI50 [51]?
Answer: > 100 µM (inactive)

Question: And the GI50 [52]?
Answer: > 100 µM (inactive)

Question: What about the GI50 [53] of the same molecule?
Answer: > 100 µM (inactive)

Question: What about the GI50 [54] of the same molecule?
Answer: > 100 µM (inactive)

Question: What about the GI50 [55] of the same molecule?
Answer: > 100 µM (inactive)

Question: And the GI50 [56]?
Answer: > 100 µM (inactive)

Question: What about the GI50 [57] of the same molecule?
Answer: > 100 µM (inactive)

Question: With `Cc1ccc(S(=O)(=O)/N=C2/N(C)CCCS2(=O)=O)cc1` as the molecule, how does the GI50 [1] read?
Answer: > 100 µM (inactive)

Question: And the GI50 [2]?
Answer: > 100 µM (inactive)

Question: And the GI50 [3]?
Answer: > 100 µM (inactive)

Question: And the GI50 [4]?
Answer: > 100 µM (inactive)

Question: And the GI50 [5]?
Answer: > 100 µM (inactive)

Question: What about the GI50 [6] of the same molecule?
Answer: > 100 µM (inactive)

Question: What about the GI50 [7] of the same molecule?
Answer: > 100 µM (inactive)

Question: And the GI50 [8]?
Answer: > 100 µM (inactive)

Question: And the GI50 [9]?
Answer: > 100 µM (inactive)

Question: And the GI50 [10]?
Answer: > 100 µM (inactive)

Question: And the GI50 [11]?
Answer: > 100 µM (inactive)

Question: What about the GI50 [12] of the same molecule?
Answer: > 100 µM (inactive)

Question: And the GI50 [13]?
Answer: > 100 µM

Question: And the GI50 [14]?
Answer: > 100 µM (inactive)

Question: What about the GI50 [15] of the same molecule?
Answer: > 100 µM (inactive)

Question: What about the GI50 [16] of the same molecule?
Answer: > 100 µM (inactive)

Question: And the GI50 [17]?
Answer: > 100 µM (inactive)

Question: What about the GI50 [18] of the same molecule?
Answer: > 100 µM (inactive)

Question: And the GI50 [58]?
Answer: > 100 µM (inactive)

Question: And the GI50 [19]?
Answer: > 100 µM (inactive)

Question: What about the GI50 [20] of the same molecule?
Answer: > 100 µM (inactive)

Question: What about the GI50 [21] of the same molecule?
Answer: > 100 µM (inactive)

Question: What about the GI50 [22] of the same molecule?
Answer: > 100 µM (inactive)

Question: And the GI50 [23]?
Answer: > 100 µM (inactive)

Question: What about the GI50 [24] of the same molecule?
Answer: 18 µM (inactive)

Question: What about the GI50 [25] of the same molecule?
Answer: > 100 µM (inactive)

Question: And the GI50 [26]?
Answer: > 100 µM (inactive)

Question: And the GI50 [27]?
Answer: > 100 µM (inactive)

Question: And the GI50 [29]?
Answer: > 100 µM (inactive)

Question: And the GI50 [30]?
Answer: > 100 µM (inactive)

Question: And the GI50 [31]?
Answer: > 100 µM (inactive)

Question: And the GI50 [32]?
Answer: > 100 µM (inactive)

Question: And the GI50 [33]?
Answer: > 100 µM (inactive)

Question: What about the GI50 [34] of the same molecule?
Answer: > 100 µM (inactive)

Question: And the GI50 [35]?
Answer: > 100 µM (inactive)

Question: And the GI50 [36]?
Answer: > 100 µM (inactive)

Question: What about the GI50 [37] of the same molecule?
Answer: > 100 µM (inactive)

Question: What about the GI50 [38] of the same molecule?
Answer: > 100 µM (inactive)

Question: What about the GI50 [39] of the same molecule?
Answer: > 100 µM (inactive)

Question: What about the GI50 [40] of the same molecule?
Answer: > 100 µM (inactive)

Question: What about the GI50 [41] of the same molecule?
Answer: > 100 µM (inactive)

Question: What about the GI50 [42] of the same molecule?
Answer: 0.17 µM (active)

Question: And the GI50 [43]?
Answer: > 100 µM (inactive)

Question: And the GI50 [44]?
Answer: > 100 µM (inactive)

Question: And the GI50 [45]?
Answer: > 100 µM (inactive)

Question: What about the GI50 [46] of the same molecule?
Answer: > 100 µM (inactive)

Question: What about the GI50 [47] of the same molecule?
Answer: > 100 µM (inactive)

Question: What about the GI50 [59] of the same molecule?
Answer: > 100 µM (inactive)

Question: What about the GI50 [48] of the same molecule?
Answer: > 100 µM (inactive)

Question: And the GI50 [49]?
Answer: > 100 µM (inactive)

Question: What about the GI50 [50] of the same molecule?
Answer: > 100 µM (inactive)

Question: What about the GI50 [51] of the same molecule?
Answer: > 100 µM (inactive)

Question: And the GI50 [52]?
Answer: > 100 µM (inactive)

Question: And the GI50 [53]?
Answer: > 100 µM (inactive)

Question: And the GI50 [54]?
Answer: > 100 µM (inactive)

Question: And the GI50 [55]?
Answer: > 100 µM (inactive)

Question: What about the GI50 [56] of the same molecule?
Answer: > 100 µM (inactive)

Question: And the GI50 [57]?
Answer: > 100 µM (inactive)
